# Experimental data taken from PubChem BioAssay AID192 (DTP/NCI, 2004).
# Values joined by “and” are separate entries in the source; they are usually repeats but may differ in a detail not shown here. Identical values can stand only once. Inconclusive results and toxic doses are left out.
# Test system: BDF1 mice, B16 melanoma ip, median survival T/C
# Assay: NCI In Vivo Anticancer Drug Screen. Data for tumor model B16 Melanoma (intraperitoneal) in B6D2F1 (BDF1) mice
# Conditions: endpoint: median survival time, higher = longer survival
# Description: The antitumor activity of compounds was measured in mice bearing transplantable tumors. Survival or tumor size were measured and the results are expressed as the measurement made in the treated group (T) divided by the measurement made in the vehicle treated control group (C). The tumor model used in this assay is B16 Melanoma (intraperitoneal) in B6D2F1 (BDF1) mice
# [1] = dose: 3.13 mg/kg/injection, schedule: Q01DX009 (ip), vehicle: water
# [2] = dose: 12.5 mg/kg/injection, schedule: Q01DX009 (ip), vehicle: water
# [3] = dose: 25.0 mg/kg/injection, schedule: Q01DX009 (ip), vehicle: water
# [4] = dose: 6.25 mg/kg/injection, schedule: Q01DX009 (ip), vehicle: saline with Tween-80
# [5] = dose: 12.5 mg/kg/injection, schedule: Q01DX009 (ip), vehicle: saline with Tween-80
# [6] = dose: 100.0 mg/kg/injection, schedule: Q04DX003 (ip), vehicle: Klucel (hydroxypropylcellulose) (HPC)
# [7] = dose: 25.0 mg/kg/injection, schedule: Q01DX009 (ip), vehicle: saline with Tween-80
# [8] = dose: 50.0 mg/kg/injection, schedule: Q01DX009 (ip), vehicle: saline with Tween-80
# [9] = dose: 12.5 mg/kg/injection, schedule: Q01DX009 (ip), vehicle: saline
# [10] = dose: 25.0 mg/kg/injection, schedule: Q01DX009 (ip), vehicle: saline
# [11] = dose: 100.0 mg/kg/injection, schedule: Q01DX009 (ip), vehicle: saline with Tween-80
smiles,measurement,setting,value
Cc1nc(N)nc(N)c1-c1ccc(Cl)c(Cl)c1,T/C,"dose: 0.25 mg/kg/injection, schedule: Q01DX009 (ip), vehicle: saline with Tween-80",104 % of control
same,T/C,"dose: 0.5 mg/kg/injection, schedule: Q01DX009 (ip), vehicle: saline with Tween-80",102 % of control
same,T/C,"dose: 0.62 mg/kg/injection, schedule: Q01DX009 (ip), vehicle: saline",102 % of control
same,T/C,"dose: 0.75 mg/kg/injection, schedule: Q01DX009 (ip), vehicle: saline with Tween-80",115 % of control
same,T/C,"dose: 1.0 mg/kg/injection, schedule: Q01DX009 (ip), vehicle: saline with Tween-80",100 % of control
same,T/C,"dose: 1.0 mg/kg/injection, schedule: Q02DX009 (ip), vehicle: Klucel (hydroxypropylcellulose) (HPC)",98 % of control
same,T/C,"dose: 1.0 mg/kg/injection, schedule: Q02DX009 (ip), vehicle: saline with Tween-80",113 % of control
same,T/C,"dose: 1.25 mg/kg/injection, schedule: Q01DX009 (ip), vehicle: saline",107 % of control
same,T/C,"dose: 1.5 mg/kg/injection, schedule: Q04DX003 (ip), vehicle: saline with Tween-80",90 % of control
same,T/C,"dose: 2.0 mg/kg/injection, schedule: Q01DX009 (ip), vehicle: saline with Tween-80",120 % of control
same,T/C,"dose: 2.0 mg/kg/injection, schedule: Q02DX009 (ip), vehicle: Klucel (hydroxypropylcellulose) (HPC)",100 % of control
same,T/C,"dose: 2.0 mg/kg/injection, schedule: Q02DX009 (ip), vehicle: saline with Tween-80",119 % of control
same,T/C,"dose: 3.0 mg/kg/injection, schedule: Q01DX009 (ip), vehicle: saline with Tween-80",112 % of control
same,T/C,"dose: 3.0 mg/kg/injection, schedule: Q04DX003 (ip), vehicle: saline with Tween-80",90 % of control
same,T/C,"dose: 4.0 mg/kg/injection, schedule: Q02DX009 (ip), vehicle: Klucel (hydroxypropylcellulose) (HPC)",100 % of control
same,T/C,"dose: 4.0 mg/kg/injection, schedule: Q04DX003 (ip), vehicle: saline with Tween-80",96 % of control
same,T/C,"dose: 6.0 mg/kg/injection, schedule: Q04DX003 (ip), vehicle: saline with Tween-80",102 % of control
same,T/C,"dose: 8.0 mg/kg/injection, schedule: Q02DX009 (ip), vehicle: Klucel (hydroxypropylcellulose) (HPC)",121 % of control
same,T/C,"dose: 8.0 mg/kg/injection, schedule: Q04DX003 (ip), vehicle: saline with Tween-80",97 % of control
same,T/C,"dose: 10.0 mg/kg/injection, schedule: Q04DX003 (ip), vehicle: saline with Tween-80",93 % of control
OCC1OC(n2nnc3cc[nH]c(=S)c32)C(O)C1O (configuration not stated),T/C,[1],97 % of control
same,T/C,"dose: 6.25 mg/kg/injection, schedule: Q01DX009 (ip), vehicle: water",113 % of control
same,T/C,[2],101 % of control
same,T/C,[3],101 % of control
COC(=O)c1cc([N+](=O)[O-])cc([N+](=O)[O-])c1Br,T/C,"dose: 0.37 mg/kg/injection, schedule: Q01DX009 (ip), vehicle: Klucel (hydroxypropylcellulose) (HPC)",95 % of control
same,T/C,"dose: 0.75 mg/kg/injection, schedule: Q01DX009 (ip), vehicle: Klucel (hydroxypropylcellulose) (HPC)",101 % of control
same,T/C,"dose: 1.5 mg/kg/injection, schedule: Q01DX009 (ip), vehicle: Klucel (hydroxypropylcellulose) (HPC)",88 % of control
O=C(NCCCCCCCCCCNC(=O)N1CC1)N1CC1,T/C,"dose: 0.75 mg/kg/injection, schedule: Q01DX009 (ip), vehicle: saline",115 % of control
same,T/C,"dose: 3.0 mg/kg/injection, schedule: Q01DX009 (ip), vehicle: saline",154 % of control
O=C1C(=O)c2ccccc2-c2ccccc21,T/C,"dose: 1.56 mg/kg/injection, schedule: Q01DX009 (ip), vehicle: saline with Tween-80",100 % of control
same,T/C,"dose: 3.13 mg/kg/injection, schedule: Q01DX009 (ip), vehicle: saline with Tween-80",89 % of control
same,T/C,"dose: 6.25 mg/kg/injection, schedule: Q01DX009 (ip), vehicle: Klucel (hydroxypropylcellulose) (HPC)",102 % of control
same,T/C,[4],97 % of control
same,T/C,"dose: 12.5 mg/kg/injection, schedule: Q01DX009 (ip), vehicle: Klucel (hydroxypropylcellulose) (HPC)",101 % of control
same,T/C,[5],100 % of control
same,T/C,"dose: 12.5 mg/kg/injection, schedule: Q04DX003 (ip), vehicle: Klucel (hydroxypropylcellulose) (HPC)",98 % of control
same,T/C,"dose: 25.0 mg/kg/injection, schedule: Q01DX009 (ip), vehicle: Klucel (hydroxypropylcellulose) (HPC)",104 % of control
same,T/C,"dose: 25.0 mg/kg/injection, schedule: Q04DX003 (ip), vehicle: Klucel (hydroxypropylcellulose) (HPC)",89 % of control
same,T/C,"dose: 50.0 mg/kg/injection, schedule: Q01DX009 (ip), vehicle: Klucel (hydroxypropylcellulose) (HPC)",109 % of control
same,T/C,"dose: 50.0 mg/kg/injection, schedule: Q04DX003 (ip), vehicle: Klucel (hydroxypropylcellulose) (HPC)",98 % of control
same,T/C,"dose: 50.0 mg/kg/injection, schedule: Q04DX003 (ip), vehicle: saline with Tween-80",166 % of control
same,T/C,[6],89 % of control
CCc1ccc(NC2=NCCO2)cc1,T/C,[5],102 % of control
same,T/C,[7],97 % of control
same,T/C,[8],91 % of control
Nc1ccc(C(=O)Oc2ccc([N+](=O)[O-])cc2)c(O)c1,T/C,"dose: 100.0 mg/kg/injection, schedule: Q01DX009 (ip), vehicle: Klucel (hydroxypropylcellulose) (HPC)",87 % of control
same,T/C,"dose: 200.0 mg/kg/injection, schedule: Q01DX009 (ip), vehicle: Klucel (hydroxypropylcellulose) (HPC)",97 % of control
COc1cccc2c1C(=O)c1c(O)c3c(c(O)c1C2=O)C[C@@](O)(C(=O)CO)C[C@@H]3OC1CC(N(C)C)C(O)C(C)O1 (some centres not stated),T/C,"dose: 0.63 mg/kg/injection, schedule: Q01DX001 (ip), vehicle: water",119 % of control
same,T/C,"dose: 1.73 mg/kg/injection, schedule: Q04DX003 (ip), vehicle: water",98 % of control
same,T/C,"dose: 3.6 mg/kg/injection, schedule: Q01DX001 (ip), vehicle: water",117 % of control
same,T/C,"dose: 4.8 mg/kg/injection, schedule: Q04DX003 (ip), vehicle: water",94 % of control and 113 % of control
same,T/C,"dose: 5.0 mg/kg/injection, schedule: Q01DX001 (ip), vehicle: water",166 % of control and 170 % of control
same,T/C,"dose: 6.0 mg/kg/injection, schedule: Q01DX001 (ip), vehicle: water",104 % of control
NC(=O)CCC(N)C(=O)O.[Cl-].[Cl-].[Cl-].[Cl-].[Pt+2] (configuration not stated),T/C,"dose: 1.56 mg/kg/injection, schedule: Q01DX009 (ip), vehicle: water",110 % of control
same,T/C,[1],110 % of control
same,T/C,[2],120 % of control
same,T/C,[3],112 % of control
Cc1ccc(NC(=O)c2ccc(Cl)cc2)cc1Cl,T/C,"dose: 75.0 mg/kg/injection, schedule: Q01DX009 (ip), vehicle: Klucel (hydroxypropylcellulose) (HPC)",100 % of control
same,T/C,"dose: 150.0 mg/kg/injection, schedule: Q01DX009 (ip), vehicle: Klucel (hydroxypropylcellulose) (HPC)",115 % of control
same,T/C,"dose: 300.0 mg/kg/injection, schedule: Q01DX009 (ip), vehicle: Klucel (hydroxypropylcellulose) (HPC)",88 % of control
[I][Ga]([I])[I],T/C,[9],87 % of control
same,T/C,[10],102 % of control
CCOC(=O)NC(C)(C)CN(CCCO)C(=O)OCC,T/C,[6],100 % of control
same,T/C,"dose: 200.0 mg/kg/injection, schedule: Q04DX003 (ip), vehicle: Klucel (hydroxypropylcellulose) (HPC)",100 % of control
same,T/C,"dose: 400.0 mg/kg/injection, schedule: Q04DX003 (ip), vehicle: Klucel (hydroxypropylcellulose) (HPC)",97 % of control
C[n+]1cccc(O)c1,T/C,"dose: 100.0 mg/kg/injection, schedule: Q04DX003 (ip), vehicle: saline",95 % of control
same,T/C,"dose: 200.0 mg/kg/injection, schedule: Q04DX003 (ip), vehicle: saline",97 % of control
same,T/C,"dose: 400.0 mg/kg/injection, schedule: Q04DX003 (ip), vehicle: saline",102 % of control
CCCCCC(=O)c1ccc(O)cc1O,T/C,"dose: 12.5 mg/kg/injection, schedule: Q01DX009 (ip), vehicle: gum acacia",102 % of control
same,T/C,"dose: 25.0 mg/kg/injection, schedule: Q01DX009 (ip), vehicle: gum acacia",89 % of control
CC(C)CC(NC(=O)CNC(=O)/C=C/c1ccco1)C(N)=O (configuration not stated),T/C,[4],105 % of control
same,T/C,"dose: 6.25 mg/kg/injection, schedule: Q01DX009 (ip), vehicle: saline",106 % of control
same,T/C,[5],105 % of control
same,T/C,[9],100 % of control
same,T/C,[7],110 % of control
same,T/C,[10],95 % of control
same,T/C,[8],100 % of control and 105 % of control
same,T/C,"dose: 50.0 mg/kg/injection, schedule: Q01DX009 (ip), vehicle: saline",97 % of control
same,T/C,[11],92 % of control
same,T/C,"dose: 200.0 mg/kg/injection, schedule: Q01DX009 (ip), vehicle: saline with Tween-80",98 % of control
CC(C)c1ccc(C(O)C2CC2)cc1 (configuration not stated),T/C,[8],110 % of control
same,T/C,[11],102 % of control
